Results published in patent publication US7135487B2, “Sulphonamide derivatives” (Eli Lilly and Company, priority 1997, dated 2006).

Key:
human GluR4B = target: T1, human GluR4B (Homo sapiens, UniProt P48058); assay: Fluo3-AM fluorescence test of glutamate-induced response in HEK cells, relative to 100 μM cyclothiazide; format: cell-based; details: human GluR4B receptor expressed in HEK 293 cells
T1 construct: expressed in transfected cells; host or cells: HEK (HEK 293)
Procedure: 96 well plates containing confluent monolayers of HEK cells stably expressing human GluR4B (obtained as described in European Patent Application Publication Number EP-A1–583917) were prepared. The tissue culture medium in the wells was then discarded, and the wells were each washed once with 200 μl of 5NaCa buffer (glucose, 10 mM, sodium chloride, 138 mM, magnesium chloride, 1 mM, potassium chloride, 5 mM, calcium chloride, 5 mM, N-[2-hydroxyethyl]-piperazine-N-[2-ethanesulfonic acid], 10 mM, to pH 7.1 to 7.3). The plates were then incubated for 60 minutes in the dark with 20 μM Fluo3-AM dye (obtained from Molecular Probes Inc, Eugene, Oreg.) in 5 NaCa buffer in each well. After the incubation, each well was washed once with 100 μl 5NaCa buffer, 200 μl of 5NaCa buffer was added and the plates were incubated for 30 minutes. […]
Each test was then performed as follows. […] A first reading was then taken using a FLUOROSKAN II fluorimeter (Obtained from Labsystems, Needham Heights, Mass., USA, a Division of Life Sciences International Plc). […] A second reading was then taken using the fluorimeter. The plate was then left in the fluorimeter for 5 minutes, and a third reading was taken. 15 μl of 400 μM glutamate solution was then added to each well (final glutamate concentration 100 μM), and a fourth reading was taken immediately. Approximately three minutes later, a fifth reading was taken. […]

T1 sequence (P48058 21-902): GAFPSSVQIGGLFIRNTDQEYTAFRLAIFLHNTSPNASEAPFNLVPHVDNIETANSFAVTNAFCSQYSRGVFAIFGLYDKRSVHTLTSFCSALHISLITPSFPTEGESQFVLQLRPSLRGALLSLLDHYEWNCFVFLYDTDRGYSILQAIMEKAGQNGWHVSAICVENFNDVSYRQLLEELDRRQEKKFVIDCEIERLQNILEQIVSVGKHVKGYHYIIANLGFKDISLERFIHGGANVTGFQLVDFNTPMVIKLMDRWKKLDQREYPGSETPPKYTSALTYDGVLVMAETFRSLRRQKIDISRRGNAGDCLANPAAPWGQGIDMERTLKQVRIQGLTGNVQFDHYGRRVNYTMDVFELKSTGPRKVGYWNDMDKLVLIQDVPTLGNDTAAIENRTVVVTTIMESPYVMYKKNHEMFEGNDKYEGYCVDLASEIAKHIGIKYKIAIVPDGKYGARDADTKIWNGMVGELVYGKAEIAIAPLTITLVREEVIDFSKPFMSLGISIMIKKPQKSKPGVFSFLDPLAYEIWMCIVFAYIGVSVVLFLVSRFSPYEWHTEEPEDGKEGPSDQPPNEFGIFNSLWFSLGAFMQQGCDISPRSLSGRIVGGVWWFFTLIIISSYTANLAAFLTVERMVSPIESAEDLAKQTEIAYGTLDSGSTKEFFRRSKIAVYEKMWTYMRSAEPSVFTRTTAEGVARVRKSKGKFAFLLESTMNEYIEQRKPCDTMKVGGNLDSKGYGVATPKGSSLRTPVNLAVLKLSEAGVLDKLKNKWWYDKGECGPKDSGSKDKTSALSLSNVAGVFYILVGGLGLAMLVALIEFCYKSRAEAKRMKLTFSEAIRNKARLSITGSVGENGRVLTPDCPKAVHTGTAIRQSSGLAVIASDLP

melting point [°C] | SMILES | potentiation of agonist-induced excitability of human GluR4B receptor (human GluR4B)
87 to 89.5 | CC(C)S(=O)(=O)NCC1(c2ccc(C(C)(C)C)cc2)CC1 | –
82 to 84 | CC(C)(C)c1ccc(C2(CNS(=O)(=O)C(F)(F)F)CC2)cc1 | –
– | NS(=O)(=O)c1cc2c(cc1Cl)NC(C1CC3C=CC1C3)NS2(=O)=O (stereo not drawn) [cyclothiazide] | potentiate
